In the NIST ThermoML archive (doi:10.1021/je1000582):
± gives the expanded uncertainty stated by the source.

Test: activity coefficient (dimensionless); of the first substance listed, at infinite dilution; xn = mol fraction of the nth substance listed
Conditions: 101 kPa, Liquid, Chromatography, x1 = 0

| activity coefficient (318.15 K) | activity coefficient (328.15 K) | activity coefficient (338.15 K) | activity coefficient (348.15 K) | activity coefficient (358.15 K) | activity coefficient (308.15 K) | SMILES |
| --- | --- | --- | --- | --- | --- | --- |
| 8.89 ± 0.61 | 8.51 ± 0.58 | 8.15 ± 0.56 | 7.8 ± 0.53 | 7.54 ± 0.51 | 9.4 ± 0.64 | C1CCCC1 [cyclopentane] + CCCC[n+]1cccc(C)c1.O=S(=O)([O-])C(F)(F)F |
| 94.9 ± 6.5 | 87.6 ± 6 | 80.2 ± 5.5 | 74.6 ± 5.1 | 69.5 ± 4.8 | 104 ± 7.2 | CCCCCCCCCC [decane] + CCCC[n+]1cccc(C)c1.O=S(=O)([O-])C(F)(F)F |
| 10.1 ± 0.7 | 9.86 ± 0.67 | 9.6 ± 0.65 | 9.35 ± 0.64 | 9.14 ± 0.62 | 10.4 ± 0.7 | CCCOCCC [dipropyl ether] + CCCC[n+]1cccc(C)c1.O=S(=O)([O-])C(F)(F)F |
| 0.907 ± 0.058 | 0.867 ± 0.055 | 0.827 ± 0.053 | 0.79 ± 0.051 | 0.759 ± 0.05 | – | CCO [ethanol] + CCCC[n+]1cccc(C)c1.O=S(=O)([O-])C(F)(F)F |
| 2.76 ± 0.19 | 2.78 ± 0.19 | 2.8 ± 0.19 | 2.81 ± 0.19 | 2.83 ± 0.19 | – | CCc1ccccc1 [ethylbenzene] + CCCC[n+]1cccc(C)c1.O=S(=O)([O-])C(F)(F)F |
| 32.7 ± 2.2 | 30.8 ± 2.1 | 29 ± 2 | 27.5 ± 1.9 | 26.1 ± 1.8 | 35.1 ± 2.4 | CCCCCCC [heptane] + CCCC[n+]1cccc(C)c1.O=S(=O)([O-])C(F)(F)F |
| 11.5 ± 0.8 | 11.2 ± 0.8 | 10.9 ± 0.7 | 10.6 ± 0.7 | 10.3 ± 0.7 | 11.9 ± 0.8 | C=CCCCC [hex-1-ene] + CCCC[n+]1cccc(C)c1.O=S(=O)([O-])C(F)(F)F |
| 23.2 ± 1.6 | 22.1 ± 1.5 | 20.9 ± 1.4 | 20 ± 1.4 | 19.1 ± 1.3 | 24.7 ± 1.7 | CCCCCC [hexane] + CCCC[n+]1cccc(C)c1.O=S(=O)([O-])C(F)(F)F |
| 0.642 ± 0.044 | 0.617 ± 0.043 | 0.592 ± 0.042 | 0.57 ± 0.041 | 0.551 ± 0.04 | – | CO [methanol] + CCCC[n+]1cccc(C)c1.O=S(=O)([O-])C(F)(F)F |
| 65.9 ± 4.5 | 61.1 ± 4.2 | 56.8 ± 3.9 | 53.2 ± 3.6 | 49.9 ± 3.4 | 71.7 ± 4.9 | CCCCCCCCC [nonane] + CCCC[n+]1cccc(C)c1.O=S(=O)([O-])C(F)(F)F |
| 23.2 ± 1.6 | 22.3 ± 1.5 | 21.5 ± 1.5 | 20.8 ± 1.4 | 20 ± 1.4 | 24.3 ± 1.7 | C=CCCCCCC [oct-1-ene] + CCCC[n+]1cccc(C)c1.O=S(=O)([O-])C(F)(F)F |
| 46.3 ± 3.2 | 43.4 ± 3 | 40.7 ± 2.8 | 38.5 ± 2.6 | 36.2 ± 2.5 | 49.6 ± 3.4 | CCCCCCCC [octane] + CCCC[n+]1cccc(C)c1.O=S(=O)([O-])C(F)(F)F |
| 1.35 ± 0.09 | 1.36 ± 0.09 | 1.38 ± 0.09 | 1.39 ± 0.09 | 1.41 ± 0.09 | – | CCCC(C)=O [pentan-2-one] + CCCC[n+]1cccc(C)c1.O=S(=O)([O-])C(F)(F)F |
| 1.39 ± 0.09 | 1.42 ± 0.09 | 1.44 ± 0.09 | 1.46 ± 0.1 | 1.48 ± 0.1 | – | CCC(=O)CC [pentan-3-one] + CCCC[n+]1cccc(C)c1.O=S(=O)([O-])C(F)(F)F |
| 17.3 ± 1.2 | 16.4 ± 1.1 | 15.5 ± 1.1 | 14.8 ± 1 | 14.1 ± 1 | 18.5 ± 1.3 | CCCCC [pentane] + CCCC[n+]1cccc(C)c1.O=S(=O)([O-])C(F)(F)F |
| 1.11 ± 0.07 | 1.06 ± 0.07 | 1 ± 0.06 | 0.958 ± 0.06 | 0.919 ± 0.058 | – | CCCO [propan-1-ol] + CCCC[n+]1cccc(C)c1.O=S(=O)([O-])C(F)(F)F |
| 1.2 ± 0.08 | 1.21 ± 0.08 | 1.23 ± 0.08 | 1.24 ± 0.08 | 1.25 ± 0.08 | 1.19 ± 0.08 | C1CCOC1 [tetrahydrofuran] + CCCC[n+]1cccc(C)c1.O=S(=O)([O-])C(F)(F)F |
| 0.898 ± 0.057 | 0.919 ± 0.058 | 0.937 ± 0.059 | 0.955 ± 0.06 | 0.972 ± 0.061 | – | c1ccsc1 [thiophene] + CCCC[n+]1cccc(C)c1.O=S(=O)([O-])C(F)(F)F |
| 0.89 ± 0.057 | 0.857 ± 0.055 | 0.82 ± 0.053 | 0.789 ± 0.051 | 0.765 ± 0.05 | – | O [water] + CCCC[n+]1cccc(C)c1.O=S(=O)([O-])C(F)(F)F |

Further lines, the compound ahead of its results:

| SMILES | activity coefficient (318.15 K) | activity coefficient (328.15 K) | activity coefficient (338.15 K) | activity coefficient (348.15 K) | activity coefficient (358.15 K) | activity coefficient (308.15 K) |
| --- | --- | --- | --- | --- | --- | --- |
| Cc1ccccc1C [1,2-dimethylbenzene] + CCCC[n+]1cccc(C)c1.O=S(=O)([O-])C(F)(F)F | 2.16 ± 0.15 | 2.2 ± 0.15 | 2.25 ± 0.15 | 2.29 ± 0.16 | 2.33 ± 0.16 | – |
| Cc1cccc(C)c1 [1,3-dimethylbenzene] + CCCC[n+]1cccc(C)c1.O=S(=O)([O-])C(F)(F)F | 2.57 ± 0.17 | 2.62 ± 0.18 | 2.67 ± 0.18 | 2.71 ± 0.18 | 2.76 ± 0.19 | – |
| Cc1ccc(C)cc1 [1,4-dimethylbenzene] + CCCC[n+]1cccc(C)c1.O=S(=O)([O-])C(F)(F)F | 2.46 ± 0.17 | 2.52 ± 0.17 | 2.57 ± 0.17 | 2.62 ± 0.18 | 2.68 ± 0.18 | – |
| C=CCCCCC [1-heptene] + CCCC[n+]1cccc(C)c1.O=S(=O)([O-])C(F)(F)F | 16.4 ± 1.1 | 15.9 ± 1.1 | 15.4 ± 1.1 | 15 ± 1 | 14.5 ± 1 | 17.1 ± 1.2 |
| C#CCCCCC [1-heptyne] + CCCC[n+]1cccc(C)c1.O=S(=O)([O-])C(F)(F)F | 4.18 ± 0.28 | 4.28 ± 0.29 | 4.37 ± 0.3 | 4.46 ± 0.3 | 4.53 ± 0.31 | 4.09 ± 0.28 |
| C#CCCCC [1-hexyne] + CCCC[n+]1cccc(C)c1.O=S(=O)([O-])C(F)(F)F | 2.94 ± 0.2 | 3.03 ± 0.21 | 3.11 ± 0.21 | 3.19 ± 0.22 | 3.27 ± 0.22 | 2.86 ± 0.19 |
| C#CCCCCCC [1-octyne] + CCCC[n+]1cccc(C)c1.O=S(=O)([O-])C(F)(F)F | 5.88 ± 0.4 | 5.97 ± 0.41 | 6.05 ± 0.41 | 6.14 ± 0.42 | 6.23 ± 0.42 | – |
| C=CCCC [1-pentene] + CCCC[n+]1cccc(C)c1.O=S(=O)([O-])C(F)(F)F | 8.44 ± 0.58 | 8.23 ± 0.56 | 8.03 ± 0.55 | 7.88 ± 0.54 | 7.73 ± 0.53 | 8.67 ± 0.59 |
| COC(C)(C)C [2-methoxy-2-methylpropane] + CCCC[n+]1cccc(C)c1.O=S(=O)([O-])C(F)(F)F | 4.22 ± 0.29 | 4.23 ± 0.29 | 4.23 ± 0.29 | 4.24 ± 0.29 | 4.24 ± 0.29 | 4.21 ± 0.29 |
| CC(C)=O [acetone] + CCCC[n+]1cccc(C)c1.O=S(=O)([O-])C(F)(F)F | 0.752 ± 0.049 | 0.762 ± 0.05 | 0.77 ± 0.05 | 0.776 ± 0.051 | 0.783 ± 0.051 | 0.743 ± 0.049 |
| c1ccccc1 [benzene] + CCCC[n+]1cccc(C)c1.O=S(=O)([O-])C(F)(F)F | 1.23 ± 0.08 | 1.25 ± 0.08 | 1.27 ± 0.08 | 1.29 ± 0.08 | 1.31 ± 0.09 | 1.2 ± 0.08 |
| CCCCO [butan-1-ol] + CCCC[n+]1cccc(C)c1.O=S(=O)([O-])C(F)(F)F | 1.42 ± 0.09 | 1.34 ± 0.09 | 1.26 ± 0.08 | 1.2 ± 0.08 | 1.15 ± 0.07 | – |
| C1CCCCCC1 [cycloheptane] + CCCC[n+]1cccc(C)c1.O=S(=O)([O-])C(F)(F)F | 15.4 ± 1.1 | 14.6 ± 1 | 13.8 ± 0.9 | 13.2 ± 0.9 | 12.5 ± 0.9 | 16.4 ± 1.1 |
| C1CCCCC1 [cyclohexane] + CCCC[n+]1cccc(C)c1.O=S(=O)([O-])C(F)(F)F | 12.4 ± 0.8 | 11.7 ± 0.8 | 11.1 ± 0.8 | 10.6 ± 0.7 | 10.1 ± 0.7 | 13.2 ± 0.9 |
| C1CCCCCCC1 [cyclooctane] + CCCC[n+]1cccc(C)c1.O=S(=O)([O-])C(F)(F)F | 19.8 ± 1.4 | 18.6 ± 1.3 | 17.5 ± 1.2 | 16.5 ± 1.1 | 15.7 ± 1.1 | – |
| CCOCC [diethyl ether] + CCCC[n+]1cccc(C)c1.O=S(=O)([O-])C(F)(F)F | 4.24 ± 0.29 | 4.18 ± 0.28 | 4.14 ± 0.28 | 4.1 ± 0.28 | 4.07 ± 0.28 | 4.29 ± 0.29 |
| Cc1ccccc1 [toluene] + CCCC[n+]1cccc(C)c1.O=S(=O)([O-])C(F)(F)F | 1.76 ± 0.12 | 1.79 ± 0.12 | 1.82 ± 0.12 | 1.85 ± 0.12 | 1.88 ± 0.13 | – |
